This note sets out measurements from PubChem BioAssay AID180 (DTP/NCI, 2004).

Where “and” joins values, the source holds several entries; their conditions need not be identical. Identical values can stand only once.

What is called T/C is the result in the treated group divided by that in the control group, in per cent.

The assay relates to BDF1 mice, Adenocarcinoma 755 s.c., tumor weight T/C. The assay can be described thus: NCI In Vivo Anticancer Drug Screen. Data for tumor model Adenocarcinoma 755 (subcutaneous) in B6D2F1 (BDF1) mice. The settings on record: endpoint: mean tumor weight, higher = larger tumour. Put shortly: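 Readout: T/C, i.e. treated-group measurement over vehicle-control measurement. Endpoint is survival or tumor size in tumor-bearing mice given compound.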

[1] abbreviates: dose: 15.0 mg/kg/injection, schedule: Q01DX011 (ip), vehicle: carboxymethylcellulose (CMC).
[2] abbreviates: dose: 30.0 mg/kg/injection, schedule: Q01DX011 (ip), vehicle: carboxymethylcellulose (CMC).
The mark [3] stands for this setting: dose: 60.0 mg/kg/injection, schedule: Q01DX011 (ip), vehicle: carboxymethylcellulose (CMC).
Where [4] appears, read: dose: 120.0 mg/kg/injection, schedule: Q01DX011 (ip), vehicle: carboxymethylcellulose (CMC).
[5] abbreviates: dose: 75.0 mg/kg/injection, schedule: Q01DX011 (ip), vehicle: methylcellulose (MC).
Setting [6] is: dose: 62.0 mg/kg/injection, schedule: Q01DX011 (ip), vehicle: carboxymethylcellulose (CMC).
Where [7] appears, read: dose: 125.0 mg/kg/injection, schedule: Q01DX011 (ip), vehicle: carboxymethylcellulose (CMC).
The mark [8] stands for this setting: dose: 250.0 mg/kg/injection, schedule: Q01DX011 (ip), vehicle: carboxymethylcellulose (CMC).
[9] abbreviates: dose: 25.0 mg/kg/injection, schedule: Q01DX011 (ip), vehicle: methylcellulose (MC).
Where [10] appears, read: dose: 200.0 mg/kg/injection, schedule: Q01DX011 (ip), vehicle: carboxymethylcellulose (CMC).
The mark [11] stands for this setting: dose: 25.0 mg/kg/injection, schedule: Q01DX011 (ip), vehicle: carboxymethylcellulose (CMC).
Where [12] appears, read: dose: 29.0 mg/kg/injection, schedule: Q01DX011 (ip), vehicle: carboxymethylcellulose (CMC).
The mark [13] stands for this setting: dose: 50.0 mg/kg/injection, schedule: Q01DX011 (ip), vehicle: carboxymethylcellulose (CMC).

Regarding `CC(=O)OC1C(CO)OC(n2cnc3c(=S)nc[nH]c32)C1OC(C)=O` (stereo unspecified), the T/C was 38 % of control (dose: 3.75 mg/kg/injection, schedule: Q01DX011 (ip), vehicle: carboxymethylcellulose (CMC)); 10 % of control (dose: 7.5 mg/kg/injection, schedule: Q01DX011 (ip), vehicle: carboxymethylcellulose (CMC)); 5 % of control under setting [1]; 5 % of control and 7 % of control under setting [2]; 7 % of control under setting [3]; 6 % of control under setting [4].

With `CC(=O)N(C(C)C)C(C)C`, the T/C was 95 % of control (dose: 5.0 mg/kg/injection, schedule: Q01DX011 (ip), vehicle: other) and 91 % of control (dose: 10.0 mg/kg/injection, schedule: Q01DX011 (ip), vehicle: other).

As to `Nc1nc(SCC(=O)c2ccc(Cl)cc2)c2ncn(C3OC(CO)C(O)C3O)c2n1` (stereo unspecified), the T/C by setting is: (dose: 37.5 mg/kg/injection, schedule: Q01DX011 (ip), vehicle: methylcellulose (MC)) 62 % of control; under setting [5], 44 % of control; (dose: 150.0 mg/kg/injection, schedule: Q01DX011 (ip), vehicle: methylcellulose (MC)) 31 % of control; (dose: 300.0 mg/kg/injection, schedule: Q01DX011 (ip), vehicle: methylcellulose (MC)) 24 % of control.

Regarding `CCOC(=O)CCCc1ccc(N=NN(C)C(C)CC)cc1` (stereo unspecified), the T/C is, setting by setting: under setting [6], 64 % of control; under setting [7], 71 % of control; under setting [8], 14 % of control.

Turning to `Cc1cnc(SCc2ccccc2)nc1N(C)C`, the T/C (dose: 15.0 mg/kg/injection, schedule: Q01DX011 (ip), vehicle: methylcellulose (MC)) was 57 % of control; the T/C (dose: 62.0 mg/kg/injection, schedule: Q01DX011 (ip), vehicle: methylcellulose (MC)) is 60 % of control; the T/C (dose: 125.0 mg/kg/injection, schedule: Q01DX011 (ip), vehicle: methylcellulose (MC)) is 65 % of control; the T/C (dose: 250.0 mg/kg/injection, schedule: Q01DX011 (ip), vehicle: methylcellulose (MC)) was 50 % of control.

As to `CC(=O)[C@H]1CC[C@H]2[C@@H]3C[C@H](C)C4=CC(=O)CC[C@]4(C)[C@H]3[C@@H](O)C[C@]12C`, the T/C was 56 % of control and 63 % of control (dose: 50.0 mg/kg/injection, schedule: Q01DX011 (sc), vehicle: steriod suspending solution); 59 % of control and 60 % of control (dose: 100.0 mg/kg/injection, schedule: Q01DX011 (sc), vehicle: steriod suspending solution); 15 % of control and 34 % of control (dose: 200.0 mg/kg/injection, schedule: Q01DX011 (sc), vehicle: steriod suspending solution).

In the case of `CC(C)(CBr)C(=O)N1CCN(C(=O)C(C)(C)CBr)CC1`, the T/C is 80 % of control (dose: 7.0 mg/kg/injection, schedule: Q01DX011 (ip), vehicle: methylcellulose (MC)) and 56 % of control (dose: 14.0 mg/kg/injection, schedule: Q01DX011 (ip), vehicle: methylcellulose (MC)).

`O=C(CCBr)NCCCNC(=O)CCBr`: the T/C under setting [9] was 54 % of control and the T/C under setting [5] is 37 % of control.

For `C=CCC1(CC)C(=O)NC(=O)NC1=O`, the T/C by setting is: (dose: 10.0 mg/kg/injection, schedule: Q01DX011 (ip), vehicle: carboxymethylcellulose (CMC)) 83 % of control; (dose: 22.0 mg/kg/injection, schedule: Q01DX011 (ip), vehicle: methylcellulose (MC)) 53 % of control; under setting [9], 112 % of control; (dose: 42.0 mg/kg/injection, schedule: Q01DX011 (ip), vehicle: methylcellulose (MC)) 59 % of control; (dose: 50.0 mg/kg/injection, schedule: Q01DX011 (ip), vehicle: methylcellulose (MC)) 94 % of control and 79 % of control; (dose: 85.0 mg/kg/injection, schedule: Q01DX011 (ip), vehicle: methylcellulose (MC)) 23 % of control. The T/C (dose: 100.0 mg/kg/injection, schedule: Q01DX011 (ip), vehicle: methylcellulose (MC)) is 61 % of control and 66 % of control; the T/C (dose: 170.0 mg/kg/injection, schedule: Q01DX011 (ip), vehicle: carboxymethylcellulose (CMC)) was 49 % of control; the T/C (dose: 170.0 mg/kg/injection, schedule: Q01DX011 (ip), vehicle: methylcellulose (MC)) was 4 % of control; the T/C under setting [10] was 83 % of control; the T/C (dose: 200.0 mg/kg/injection, schedule: Q01DX011 (ip), vehicle: methylcellulose (MC)) was 27 % of control and 42 % of control.

In the case of `NS(=O)(=O)c1nc(S(=O)(=O)O)c2[nH]cnc2n1`, the T/C is 95 % of control under setting [2], 76 % of control under setting [3] and 86 % of control under setting [4].

Consider `CN1c2ccc3ccccc3c2Sc2ccc3ccccc3c21`, for which the T/C (dose: 8.25 mg/kg/injection, schedule: Q01DX011 (ip), vehicle: carboxymethylcellulose (CMC)) is 53 % of control; the T/C (dose: 16.5 mg/kg/injection, schedule: Q01DX011 (ip), vehicle: carboxymethylcellulose (CMC)) is 71 % of control; the T/C under setting [11] is 59 % of control; the T/C under setting [12] was 66 % of control; the T/C (dose: 33.0 mg/kg/injection, schedule: Q01DX011 (ip), vehicle: carboxymethylcellulose (CMC)) was 46 % of control; the T/C (dose: 44.0 mg/kg/injection, schedule: Q01DX011 (ip), vehicle: carboxymethylcellulose (CMC)) was 80 % of control. Besides, the T/C under setting [13] was 69 % of control; the T/C (dose: 66.0 mg/kg/injection, schedule: Q01DX011 (ip), vehicle: carboxymethylcellulose (CMC)) is 29 % of control and 39 % of control and 40 % of control; the T/C (dose: 150.0 mg/kg/injection, schedule: Q01DX011 (ip), vehicle: carboxymethylcellulose (CMC)) is 27 % of control; the T/C under setting [10] was 48 % of control; the T/C (dose: 387.5 mg/kg/injection, schedule: Q01DX011 (ip), vehicle: carboxymethylcellulose (CMC)) was 55 % of control.

As for `CCCCCCCCn1cnc2c(=S)nc[nH]c21`, the T/C runs as follows: under setting [7], 84 % of control; under setting [8], 67 % of control; (dose: 500.0 mg/kg/injection, schedule: Q01DX011 (ip), vehicle: carboxymethylcellulose (CMC)) 102 % of control.

`CN(C)S(=O)(=O)c1ncc2[nH]cnc2n1`: the T/C under setting [11] was 116 % of control; the T/C (dose: 75.0 mg/kg/injection, schedule: Q01DX011 (ip), vehicle: carboxymethylcellulose (CMC)) was 98 % of control; the T/C (dose: 225.0 mg/kg/injection, schedule: Q01DX011 (ip), vehicle: carboxymethylcellulose (CMC)) was 84 % of control.

In the case of `O=C(CCBr)NCCCCNC(=O)CCBr`, the T/C runs as follows: (dose: 56.0 mg/kg/injection, schedule: Q01DX011 (ip), vehicle: methylcellulose (MC)) 83 % of control; (dose: 113.0 mg/kg/injection, schedule: Q01DX011 (ip), vehicle: methylcellulose (MC)) 78 % of control.

For `CCCCCCCCOc1nc(N)nc2n[nH]nc12`, the T/C is 112 % of control under setting [13]; 69 % of control (dose: 100.0 mg/kg/injection, schedule: Q01DX011 (ip), vehicle: carboxymethylcellulose (CMC)); 57 % of control under setting [10].

Turning to `C[C@]12C=CC(=O)C=C1CC[C@H]1[C@@H]3C[C@@H](O)[C@](O)(C(=O)CO)[C@@]3(C)C[C@H](O)[C@@]12F`, the T/C (dose: 1.5 mg/kg/injection, schedule: Q01DX011 (sc), vehicle: steriod suspending solution) is 98 % of control; the T/C (dose: 3.0 mg/kg/injection, schedule: Q01DX011 (sc), vehicle: steriod suspending solution) is 79 % of control; the T/C (dose: 3.12 mg/kg/injection, schedule: Q01DX011 (sc), vehicle: steriod suspending solution) was 77 % of control; the T/C (dose: 6.0 mg/kg/injection, schedule: Q01DX011 (sc), vehicle: steriod suspending solution) is 41 % of control; the T/C (dose: 12.5 mg/kg/injection, schedule: Q01DX011 (sc), vehicle: steriod suspending solution) is 32 % of control and 44 % of control and 53 % of control.

`CCCCSc1ncnc2nc[nH]c12`: the T/C reads like this: (dose: 0.25 mg/kg/injection, schedule: Q01DX011 (ip), vehicle: carboxymethylcellulose (CMC)) 119 % of control; (dose: 1.0 mg/kg/injection, schedule: Q01DX011 (ip), vehicle: carboxymethylcellulose (CMC)) 121 % of control; (dose: 4.0 mg/kg/injection, schedule: Q01DX011 (ip), vehicle: carboxymethylcellulose (CMC)) 62 % of control; under setting [1], 4 % of control and 9 % of control; under setting [6], 4 % of control.

In the case of `CC(=O)c1cc(C)[nH]c1C`, the T/C was 58 % of control under setting [12]; 99 % of control (dose: 57.5 mg/kg/injection, schedule: Q01DX011 (ip), vehicle: carboxymethylcellulose (CMC)); 29 % of control (dose: 115.0 mg/kg/injection, schedule: Q01DX011 (ip), vehicle: carboxymethylcellulose (CMC)); 96 % of control and 77 % of control (dose: 115.0 mg/kg/injection, schedule: Q01DX011 (ip), vehicle: methylcellulose (MC)).
